Where two headings read alike, the source gives them in different places.
Key:
[1] = system: P. falciparum (NF54 or 3D7 strain); assay: Assay for P. falciparum proliferation in infected human blood cells (SYBR Green); format: cell-based, Plasmodium falciparum; conditions: Plasmodium falciparum, Erythrocyte
Procedure, shortened: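 NF54 or 3D7 parasites in O+ human erythrocytes at 2.5% hematocrit and 0.3% parasitemia final, exposed to compounds 72 h at 37 °C under 93% N2/4% CO2/3% O2.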

P. yoelii Sporozoite = assay: P. yoelii sporozoite invasion assay in HepG2-A16-CD81EGFP liver cells (immunofluorescence quantification of EEFs); format: cell-based; conditions: Plasmodium yoelii
From the text: Compounds of the invention can be assayed to measure their capacity to inhibit proliferation of parasites in liver cells. The proliferation is quantified by determine the number of infected cells by immunofluorescence.
Due to the difficulty of successfully infecting immortalized human liver cell lines with the human malaria sporozoites (liver-stage parasite), rodent malaria sporozoites from Plasmodium yoelii (17XNL) and P. berghei (ANKA) are the preferred surrogate. Sporozoites are obtained from Anopheles stephensi mosquitoes supplied by the New York University Insectary, which ships the malaria-infected mosquitoes 10-13 days following the ingestion of an infective blood meal.
A transgenic HepG2 cell line expressing the tetraspanin CD81 receptor (HepG2-A16-CD81^EGFP) is used to increase the infectivity rate of rodent-malaria sporozoites into human cells. HepG2-A16-CD81^EGFP cells are stably transformed to express a GFP-CD81 fusion protein. A continuous in vitro culture of this line was maintained at 37° C. in 4% CO2 in complete media (CM) which contains: DMEM (Invitrogen, Carlsbad, USA) supplemented with 10% FCS, 0.29 mg/ml glutamine, 100 units penicillin and 100 μg/ml streptomycin (SigmaAldrich, USA).
P. yoelii Sporozoite Invasion Assay
These plates are incubated at 37° C. with 4% CO2 overnight. Two hours prior to infection, 50 nl of compound dissolved in DMSO (0.1% final DMSO concentration per well) were transferred with a PinTool (GNF Systems) into the assay plates (10 μM final concentration). A 1:3 serial dilution of atovaquone (10 μM at the highest final concentration) and wells treated only with DMSO were used as positive and negative controls, respectively.
Freshly dissected salivary glands from infected mosquitoes were homogenized in a glass tissue grinder, filtered twice through Nylon cell strainers (40 μm pore size, BD Falcon) and counted using a hemocytometer. The assay plate with HepG2-A16-CD81^EGFP cells and compound were then infected with 8×10^3 sporozoites per well and the plates are subjected to a centrifugal force of 650×g to pellet the sporozoites onto the liver cell monolayer. The assay plate is incubated at 37° C. for 2 hours to permit sporozoite invasion, then the media is aspirated from the media plate, and replaced with 50 μl CM (containing a 5× concentration of penicillin/streptomycin; 500 units penicillin and 0.5 mg streptomycin per ml) per well. 50 nl of compound is re-introduced by PinTool and the assay plate incubated for 48 hours at 37° C. before quantification of infected cells by immunofluorescence.
Atovaquone and uninfected wells were used as controls on each plate. Two replicate plates are tested for each assay.
Stained EEFs were then quantified using the Opera Confocal High Content Screening System (PerkinElmer, Waltham, USA). Images were collected using a 20× objective lens (20×/0.45 NA, LWD Plan Fluor, Olympus) at a binning of 2, using a 365 nm Xeon arc lamp illumination to detect the Hoechst-labeled nuclei and 635 nm laser line to excite DyLight649-labeled parasites. The image resolution yielded was approximately 0.66 μm/pixel (˜0.43 μm 2/pixel). All images were analyzed using a custom Acapella™ (PerkinElmer) script parametrized for this assay. In brief, images from fields inside the well were first discarded as out-of focus when the intensity in the nuclear channel was too low. Then, HepG2-A16-CD81^EGFP cells were counted by detecting the nuclei labeled with Hoechst using the nuclei detection libraries available with Acapella™. Parasites were later segmented using the αPyHSP70 immuno-labeling signal, using a custom script library. Once the objects were segmented from the picture, morphological-based (e.g. size, roundness, etc) and intensity-based features were measured for each object detected in the image (i.e. nuclei and parasites). Infection ratio was set as the ratio between parasite number and number of nuclei counted in images considered as “in-focus”.

[2] = 72 h, NF54 or 3D7 infected human erythrocytes, 72 hours, read-out: EC50 (nM), inhibitory efficacy in delaying P. falciparum proliferation in infected human blood cells
[3] = HepG2-A16-CD81EGFP cells, 48 hours, read-out: EC50 (nM), inhibitory efficacy in delaying the proliferation of P. yoelii sporozoite in infected liver cells
[4] = 72 h, read-out: EC50 (nM), inhibitory efficacy in delaying P. falciparum proliferation in infected human blood cells
[5] = read-out: EC50, P. yoelii Sporozoite Invasion Assay
[6] = infected human red blood cells, read-out: EC50, P. falciparum Proliferation Assay

Row | EC50 (P. yoelii Sporozoite; 48 h, read-out: EC50 (nM), inhibitory efficacy in delaying the proliferation of P. yoelii sporozoite in infected liver cells) [nM] | SMILES | EC50 [1, 2] [nM] | EC50 (P. yoelii Sporozoite; [3]) [nM] | EC50 [1, 4] [nM] | EC50 (P. yoelii Sporozoite; [5]) [nM] | EC50 [1, 6] [nM]
1 | – | CN(C(=O)c1cn2c(-c3ccc(C(N)=O)cc3)cnc2cn1)c1ccc(F)cc1 [Compound 11, 3-(4-carbamoylphenyl)-N-(4-fluorophenyl)-N-methylimidazo[1,2-a]pyrazine-6-carboxamide] | 74 | 56 | – | – | –
2 | – | CNC(=O)c1ccc(-c2cnc3cnc(C(=O)N(C)c4ccc(C#N)cc4)cn23)cc1 [Compound 38, N-(4-cyanophenyl)-N-methyl-3-[4-(methylcarbamoyl)phenyl]imidazo[1,2-a]pyrazine-6-carboxamide] | 131 | 290 | – | – | –
3 | – | CN(C(=O)c1cn2c(-c3ccc(C(F)(F)F)cc3)cnc2cn1)c1ccc(C#N)cc1 [Compound 76, N-(4-cyanophenyl)-N-methyl-3-[4-(trifluoromethyl)phenyl]imidazo[1,2-a]pyrazine-6-carboxamide] | – | 263 | 35 | – | –
4 | – | CN(Cc1cn2c(-c3ccc(C(F)(F)F)cc3)cnc2cn1)c1ccc(C#N)cc1 [Compound 213, 4-[methyl({3-[4-(trifluoromethyl)phenyl]imidazo[1,2-a]pyrazin-6-yl}methyl)amino]benzonitrile] | 41 | 14 | – | < 50 | –
5 | – | CN(Cc1cn2c(-c3ccc(C(N)=O)cc3)cnc2cn1)c1ccc(F)cc1 [Compound 222, 4-(6-{[(4-fluorophenyl)(methyl)amino]methyl}imidazo[1,2-a]pyrazin-3-yl)benzamide] | 30 | 7 | – | < 50 | < 50
6 | – | CN(Cc1cn2c(-c3ccc(C(N)=O)cc3)cnc2cn1)c1ccc(C#N)cc1 [Compound 223, 4-(6-{[(4-cyanophenyl)(methyl)amino]methyl}imidazo[1,2-a]pyrazin-3-yl)benzamide] | 25 | 11 | – | < 50 | –
7 | 32 | CNC(=O)c1ccc(-c2cnc3cnc(C(=O)N(C)c4ccc(Cl)cc4)cn23)cc1 [Compound 228, N-(4-chlorophenyl)-N-methyl-3-[4-(methylcarbamoyl)phenyl]imidazo[1,2-a]pyrazine-6-carboxamide] | – | – | 58 | < 50 | –
8 | – | CC(=O)Nc1ccc(-c2cnc3cnc(C(=O)N(C)c4ccc(C#N)cc4)cn23)cn1 [Compound 236, N-(4-cyanophenyl)-3-(6-acetamidopyridin-3-yl)-N-methylimidazo[1,2-a]pyrazine-6-carboxamide] | 127 | 189 | – | – | –
9 | – | CN(Cc1cn2c(-c3ccc(C(N)=O)cc3)cnc2cn1)c1ccc(Cl)cc1 [Compound 477, 4-(6-{[(4-chlorophenyl)(methyl)amino]methyl}imidazo[1,2-a]pyrazin-3-yl)benzamide] | 9 | 11 | – | < 50 | < 50
10 | – | COC(=O)Nc1ccc(-c2cnc3cnc(C(=O)N(C)c4ccc(C#N)cc4)cn23)cc1 [Compound 482, methyl N-(4-{6-[(4-cyanophenyl)(methyl)carbamoyl]imidazo[1,2-a]pyrazin-3-yl}phenyl)carbamate] | 37 | 64 | – | – | –
11 | – | CN(C(=O)c1cn2c(-c3ccc(C(N)=O)cc3)cnc2cn1)c1ccc(Cl)cc1 [Compound 486, 3-(4-carbamoylphenyl)-N-(4-chlorophenyl)-N-methylimidazo[1,2-a]pyrazine-6-carboxamide] | 42 | 120 | – | – | < 50
12 | – | CN(C(=O)c1cn2c(-c3ccc4c(cnn4C)c3)cnc2cn1)c1ccc(C#N)cc1 [Compound 487, N-(4-cyanophenyl)-N-methyl-3-(1-methyl-1H-indazol-5-yl)imidazo[1,2-a]pyrazine-6-carboxamide] | 96 | 2940 | – | – | –
13 | – | Cc1ccc(N(C)C(=O)c2cn3c(-c4ccc(C(F)(F)F)cc4)cnc3cn2)nc1 [Compound 491, N-methyl-N-(5-methylpyridin-2-yl)-3-[4-(trifluoromethyl)phenyl]imidazo[1,2-a]pyrazine-6-carboxamide] | 199 | 1110 | – | – | –

From US20150291598A1 (NOVARTIS AG, priority 2012, published 2015)
